This is an account of results in patent US20250154135A1, “M-CHOLINE RECEPTOR AGONIST COMPOUND, PREPARATION METHOD THEREFOR AND USE THEREOF” (NANJING GRITPHARMA CO., LTD., priority 2022, published 2025).

Where “and” joins values, the source holds several entries; their conditions need not be identical. Equal values may be shown once.

One series deals with rabbit pupil. Description: Rabbit pupil diameter change, pilocarpine p-toluate at different concentrations (Test Example 3). Format: in vivo. The method, then:
Under the condition of normal saline, the onset time, strength of effect, duration of effect, and irritation of 1.25% pilocarpine hydrochloride and different concentrations (0.88%, 1.75%, 3.50%) of pilocarpine p-toluate were tested.
Each rabbit was subjected to eye drop administration in the left eye (using a pipette), with an administration volume of 100 μL.
Number of animals: 6 rabbits per compound.
Administration schedule: single administration.
• the pupil diameter of the left eye of the rabbits was measured at time points of −0.5 h (i.e., half an hour before administration), 5 min, 10 min, 15 min, 0.5 h, 3 h and 4 h relative to administration, with the measurement performed 3 times for each rabbit at each time point.

A further series relates to rabbit eyes. As to the kind of experiment: Irritation to rabbit eyes (Test Example 3). It counts as in vivo. The conditions noted are these: 0.88% compared with 3.50%. From the text:
Irritation: examined concurrently with the pupil diameter.
The numerical results of pupil changes are shown in Tables 3-1 to 3-4, and the changes in eye irritation phenomenon are shown in FIGS. 13 and 14.

Consider `CC[C@@H]1C(=O)OC[C@@H]1Cc1cncn1C` [JQ-6, Pilocarpine p-toluate], for which the figures for the “strength of effect at each time point compared to 1.25% pilocarpine hydrochloride” value in the series on rabbit pupil (0.88% (half molar concentration of pilocarpine)), in the series with rabbit pupil (1.75% (same molar concentration of pilocarpine)) and in the series on rabbit pupil (3.50% (2 times molar concentration of pilocarpine)) were “demonstrated increased strength of effect at each time point”, “the increase in strength of effect at each time point was more significant” and “significantly enhanced”, respectively. The “Percentage change in pupil diameter” value in the series on rabbit pupil (0.88%, 5 min, average of 6 rabbits) was −10.07%; with rabbit pupil (0.88%, 5 min, individual rabbit), −4.80% and −6.70% and −13.54% and −9.41% and −12.03% and −13.93%; in the series on rabbit pupil (0.88%, 10 min, average of 6 rabbits), −36.21%; in the series on rabbit pupil (0.88%, 10 min, individual rabbit), −33.75% and −34.62% and −30.54% and −48.90% and −41.07% and −28.39%; with rabbit pupil (0.88%, 15 min, average of 6 rabbits), −40.86%; with rabbit pupil (0.88%, 15 min, individual rabbit) it was −43.40% and −41.17% and −36.73% and −43.68% and −50.07% and −30.13%. Also, the “Percentage change in pupil diameter” value in the series on rabbit pupil (0.88%, 0.5 h, average of 6 rabbits) was −37.44%; with rabbit pupil (0.88%, 0.5 h, individual rabbit) it was −36.60% and −41.12% and −36.25% and −37.28% and −44.65% and −28.71%; with rabbit pupil (0.88%, 3 h, average of 6 rabbits), −10.34%; in the series on rabbit pupil (0.88%, 3 h, individual rabbit), −9.65% and −14.66% and −12.43% and −7.91% and −14.57% and −2.85%; in the series with rabbit pupil (0.88%, 4 h, average of 6 rabbits), 0.70%; with rabbit pupil (0.88%, 4 h, individual rabbit) it was 3.67% and −2.65% and 4.83% and −0.54% and −1.39% and 0.26%. For the same compound, the “Percentage change in pupil diameter” value is −18.36% and −12.49% and −14.04% in the series on rabbit pupil (1.75%, 5 min, individual rabbit); −44.23% and −37.19% and −44.10% in the series on rabbit pupil (1.75%, 10 min, individual rabbit); −49.50% and −43.41% and −45.41% in the series on rabbit pupil (1.75%, 15 min, individual rabbit); −47.81% and −42.82% and −44.78% in the series with rabbit pupil (1.75%, 0.5 h, individual rabbit); −12.34% and −6.91% in the series with rabbit pupil (1.75%, 3 h, individual rabbit); −0.45% and −0.05% in the series with rabbit pupil (1.75%, 4 h, individual rabbit). The “irritation to rabbit eyes” value in the series on rabbit eyes was “significantly lower than that caused by the 3.50% pilocarpine p-toluate”.
